9 compounds from US20220041681A1 (MEDIMMUNE LIMITED, priority 2016, published 2022) can be followed below.

One series concerns the target T1, Human GIPr (Homo sapiens, UniProt P48546).
T1 sequence (P48546 22-466): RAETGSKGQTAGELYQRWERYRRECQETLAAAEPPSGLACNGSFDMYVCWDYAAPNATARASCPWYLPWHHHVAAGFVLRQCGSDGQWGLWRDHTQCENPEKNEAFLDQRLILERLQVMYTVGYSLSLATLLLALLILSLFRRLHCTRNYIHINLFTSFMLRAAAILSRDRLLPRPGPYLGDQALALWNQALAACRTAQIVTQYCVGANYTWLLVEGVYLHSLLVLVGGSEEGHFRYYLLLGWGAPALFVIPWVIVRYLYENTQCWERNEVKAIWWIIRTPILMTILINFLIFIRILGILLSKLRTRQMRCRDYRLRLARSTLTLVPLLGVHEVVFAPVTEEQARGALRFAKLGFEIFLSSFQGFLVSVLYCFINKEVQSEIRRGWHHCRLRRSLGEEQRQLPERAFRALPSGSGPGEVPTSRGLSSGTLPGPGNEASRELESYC
Kind of series: cAMP activity assay (assay 1) in assay medium. The class given is cell-based. The conditions noted are these: Table 4, additional peptides, read-out: hGIPR EC50.

A short description of series [1]: frozen blank plasma from mouse. The conditions noted are these: 37° C., up to 48 hours.
Series [2] is described as follows: frozen blank plasma from rat. Conditions: 37° C., up to 48 hours.
Series [3] has as its target T2, Human GlucR (Homo sapiens, UniProt P47871).
T2 construct: expressed in transfected cells
The series is described as follows: cAMP activity assay (assay 1) in assay medium. In kind it is cell-based. The conditions noted are these: Table 4, additional peptides, read-out: hGlucR EC50.
Experimental: (§2) All sample dilutions were made in duplicate.
(§3) A frozen cryo-vial of cells expressing the receptor of interest was thawed rapidly in a water-bath, transferred to pre-warmed assay media and spun at 240×g for 5 minutes. Cells were re-suspended in assay media at an optimized concentration (e.g. hGCGR cells at 1×10^5 cells/ml, hGLP-1R and hGIPR cells at 0.5×10^5 cells/ml).
(§4) To this, 5 μL cell suspension was added and the plates incubated at room temperature for 30 minutes.
(§5) cAMP levels were measured using a commercially available cAMP dynamic 2 HTRF kit (Cisbio, Cat #62AM4PEJ), following the two step protocol as per manufacturer's recommendations. In brief; anti-cAMP cryptate (donor fluorophore) and cAMP-d2 (acceptor fluorophore) were made up separately by diluting each 120 in conjugate & lysis buffer provided in the kit. 5 μL anti-cAMP cryptate was added to all wells of the assay plate, and 5 μL cAMP-d2 added to all wells except non-specific binding (NSB) wells, to which conjugate and lysis buffer was added.

In a further series the target is Human GLP1R (Homo sapiens, UniProt P43220). Kind of series: cAMP activity assay (assay 1) in assay medium. In kind it is cell-based. Conditions: Table 4, additional peptides, read-out: hGLP1R EC50.
In series [4] the target is T2, Human GlucR. Kind of series: cAMP assay in presence of serum albumin (assay 2), 4.4% human serum albumin. In kind it is cell-based. The conditions noted are these: relative potency GlucR / relative potency GLP1R vs native ligands. The protocol: (§1) CHO cells with stable recombinant expression of the human, mouse or rat GlucR or GLP-t receptor were cultured in DMEM 10% FBS and geneticin (100 μg/mil). Cryopreserved cell stocks were prepared in 1× cell freezing medium-DMSO serum free (Sigma Aldrich) at 2×10^7/vial and stored at […]. […] Peptides were serially diluted in DMSO and then diluted 100 fold into DMEM containing serum albumin at stated final concentration. […] Cells were added to the assay plates and incubated for 30 min at room temperature. Following incubation the assay was stopped and cAMP levels measured using the HTRF® dynamic d2 cAMP assay kit available from CisBio Bioassays, as per the manufacturer's guidelines. Plates were read on Perkin Elmer ENVISION® fluorescence plate readers. Human and rat serum albumin were purchased from Sigma Aldrich and mouse serum albumin from Equitech Bio Ltd.
(In general: Cyclic AMP is a second messenger, typically raised through Gs and lowered through Gi signalling.)

In a further series the target is T3, Mouse GlucR (Mus musculus, UniProt Q61606).
T3 construct: expressed in transfected cells
The series is described as follows: cAMP assay in presence of serum albumin (assay 2), 3.2% mouse serum albumin. The class given is cell-based. The conditions noted are these: relative potencies vs native ligands. The protocol:
as §1

Values joined by “and” are separate entries in the source; they are usually repeats but may differ in a detail not shown here. Equal values may be shown once. Numbered stars: 1 amine (or outer) side, 2 acyl side, 3 side chain; on linkers, the order of the positions; unused ones are H or OH. Side chains are listed from the residue outwards. Peptide text beside a SMILES is read from it. * marks the point of attachment. γGlu = O=C(O)[C@H](CCC(=O)[*:2])N[*:1]; Palmitoyl = CCCCCCCCCCCCCCCC(=O)*

Sequence of Human GLP1R (P43220 24-463): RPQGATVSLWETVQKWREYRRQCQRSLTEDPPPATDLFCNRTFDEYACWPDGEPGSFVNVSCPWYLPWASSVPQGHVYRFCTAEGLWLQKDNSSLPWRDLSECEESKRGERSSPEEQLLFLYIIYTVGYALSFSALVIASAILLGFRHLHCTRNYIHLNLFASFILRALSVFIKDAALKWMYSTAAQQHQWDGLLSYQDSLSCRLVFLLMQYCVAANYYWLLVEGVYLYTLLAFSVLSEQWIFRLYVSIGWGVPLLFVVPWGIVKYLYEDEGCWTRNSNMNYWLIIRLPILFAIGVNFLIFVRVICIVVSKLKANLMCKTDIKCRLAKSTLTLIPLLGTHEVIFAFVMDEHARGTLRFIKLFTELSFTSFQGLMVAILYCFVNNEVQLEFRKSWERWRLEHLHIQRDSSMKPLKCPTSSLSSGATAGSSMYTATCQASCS
T2 sequence (P47871 26-477): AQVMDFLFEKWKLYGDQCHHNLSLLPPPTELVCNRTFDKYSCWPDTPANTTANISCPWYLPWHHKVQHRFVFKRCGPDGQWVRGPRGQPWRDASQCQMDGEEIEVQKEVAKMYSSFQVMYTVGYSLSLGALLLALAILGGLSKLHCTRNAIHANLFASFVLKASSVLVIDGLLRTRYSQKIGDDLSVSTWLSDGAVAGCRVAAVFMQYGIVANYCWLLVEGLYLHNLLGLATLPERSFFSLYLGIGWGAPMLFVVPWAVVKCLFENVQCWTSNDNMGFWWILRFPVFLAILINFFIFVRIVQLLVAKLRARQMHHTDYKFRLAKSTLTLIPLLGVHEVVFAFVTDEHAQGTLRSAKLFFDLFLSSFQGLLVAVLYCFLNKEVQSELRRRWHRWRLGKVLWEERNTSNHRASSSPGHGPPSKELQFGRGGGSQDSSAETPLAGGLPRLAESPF
T3 sequence (Q61606 27-485): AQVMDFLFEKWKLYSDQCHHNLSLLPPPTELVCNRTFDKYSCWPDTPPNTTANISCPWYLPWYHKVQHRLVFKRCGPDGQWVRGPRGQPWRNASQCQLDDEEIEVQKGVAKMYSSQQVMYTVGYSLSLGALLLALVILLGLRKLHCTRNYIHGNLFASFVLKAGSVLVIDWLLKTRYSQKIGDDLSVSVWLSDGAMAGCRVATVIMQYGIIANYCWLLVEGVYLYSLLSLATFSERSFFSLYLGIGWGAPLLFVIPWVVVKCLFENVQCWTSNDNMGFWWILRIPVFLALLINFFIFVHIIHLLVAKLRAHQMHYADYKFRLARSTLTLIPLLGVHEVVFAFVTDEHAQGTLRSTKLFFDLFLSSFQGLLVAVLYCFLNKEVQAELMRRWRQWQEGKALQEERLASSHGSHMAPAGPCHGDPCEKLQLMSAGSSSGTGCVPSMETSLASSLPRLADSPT
Experimental for Human GIPr: as §2, §3, §4, §5
Experimental for Human GLP1R: as §2, §3, §4, §5

With `CCCCCCCCCCCCCCCC(=O)N[C@@H](CCC(=O)NCCCC[C@H](NC(=O)[C@H](Cc1ccc(O)cc1)NC(=O)[C@H](CCCCN)NC(=O)[C@H](CO)NC(=O)[C@H](Cc1ccc(O)cc1)NC(=O)[C@H](CC(=O)O)NC(=O)[C@H](CO)NC(=O)[C@@H](NC(=O)[C@H](Cc1ccccc1)NC(=O)[C@@H](NC(=O)CNC(=O)[C@H](CCC(N)=O)NC(=O)[C@H](CO)NC(=O)[C@@H](N)Cc1c[nH]cn1)[C@@H](C)O)[C@@H](C)O)C(=O)N[C@@H](CC(=O)O)C(=O)N[C@@H](CO)C(=O)N[C@@H](CCCNC(=N)N)C(=O)N[C@@H](CCCNC(=N)N)C(=O)N[C@@H](C)C(=O)N[C@@H](CCC(N)=O)C(=O)N[C@@H](CC(=O)O)C(=O)N[C@@H](Cc1ccccc1)C(=O)N[C@H](C(=O)N[C@@H](CCC(N)=O)C(=O)N[C@@H](Cc1c[nH]c2ccccc12)C(=O)N[C@@H](CC(C)C)C(=O)N[C@@H](CCC(=O)O)C(=O)N[C@@H](C)C(=O)NCC(=O)NCC(N)=O)C(C)C)C(=O)O` [g601] (H-HSQGTFTSDYSKYK([γGlu-Palmitoyl])DSRRAQDFVQWLEAGG-NH2; N-terminus assumed), at Human GIPr, the 50% effective concentration (EC50) was determined as 0.0741 nM. For the compound “HSQGTFTSDXSEYLDSERARDFVAWLEAGG-amide X10 = K(gE-palm)”, the fragment found entry in series [1] was “DPP cleaved product, minor”; in series [2] it was “DPP cleaved product, minor”. On to `CC(C)C[C@H](NC(=O)[C@H](Cc1ccc(O)cc1)NC(=O)[C@H](CCCCN)NC(=O)[C@H](CO)NC(=O)[C@H](Cc1ccc(O)cc1)NC(=O)[C@H](CC(=O)O)NC(=O)[C@H](CO)NC(=O)[C@@H](NC(=O)[C@H](Cc1ccccc1)NC(=O)[C@@H](NC(=O)CNC(=O)[C@H](CCC(N)=O)NC(=O)[C@H](CO)NC(=O)[C@@H](N)Cc1c[nH]cn1)[C@@H](C)O)[C@@H](C)O)C(=O)N[C@@H](CC(=O)O)C(=O)N[C@@H](CO)C(=O)N[C@@H](CCCNC(=N)N)C(=O)N[C@@H](CCCNC(=N)N)C(=O)N[C@@H](C)C(=O)N[C@@H](CCC(N)=O)C(=O)N[C@@H](CC(=O)O)C(=O)N[C@@H](Cc1ccccc1)C(=O)N[C@H](C(=O)N[C@@H](CCC(N)=O)C(=O)N[C@@H](Cc1c[nH]c2ccccc12)C(=O)N[C@@H](CC(C)C)C(=O)N[C@H](C(=O)N[C@@H](C)C(=O)NCC(=O)NCC(=O)NCC(=O)NCC(=O)NCC(=O)NCC(=O)N[C@@H](CCCCN)C(N)=O)C(C)C)C(C)C` [g32 ?], for which the EC50 at Human GlucR [3] was determined as 0.0103 nM; on Human GLP1R, 0.0261 nM. Regarding `CCCCCCCCCCCCCCCC(=O)N[C@@H](CCC(=O)NCCCC[C@H](NC(=O)[C@H](CO)NC(=O)[C@H](CC(=O)O)NC(=O)[C@H](CC(C)C)NC(=O)[C@H](Cc1ccc(O)cc1)NC(=O)[C@H](CCCCN)NC(=O)[C@H](CO)NC(=O)[C@H](Cc1ccc(O)cc1)NC(=O)[C@H](CC(=O)O)NC(=O)[C@H](CO)NC(=O)[C@@H](NC(=O)[C@H](Cc1ccccc1)NC(=O)[C@@H](NC(=O)CNC(=O)[C@H](CCC(N)=O)NC(=O)CNC(=O)[C@@H](N)Cc1c[nH]cn1)[C@@H](C)O)[C@@H](C)O)C(=O)N[C@@H](CCCNC(=N)N)C(=O)N[C@@H](C)C(=O)N[C@@H](CCCNC(=N)N)C(=O)N[C@@H](CC(=O)O)C(=O)N[C@@H](Cc1ccccc1)C(=O)N[C@H](C(=O)N[C@@H](CCC(=O)O)C(=O)N[C@@H](Cc1c[nH]c2ccccc12)C(=O)N[C@@H](CC(C)C)C(=O)N[C@H](C(=O)N[C@@H](C)C(=O)NCC(=O)NCC(N)=O)C(C)C)C(C)C)C(=O)O` [g660] (H-HGQGTFTSDYSKYLDSK([γGlu-Palmitoyl])RARDFVEWLVAGG-NH2; N-terminus assumed), the 50% effective concentration (EC50) at Human GIPr turned out to be 3.32 nM.

For the compound “HSQGTFTSDYSKXLDSERARDFVAWLVAGG-amide X13 = K(gE-palm)”, the fragment found result in series [1] is “DPP IV-cleavage product, 14% at 24 h and +1 DPP cleaved product, 5% at 24 h”; in series [2], “DPP IV-cleavage product, 2% at 24 h”. Take “HSQGTFTSDXSRYLDSRSARDFVAWLEAGG-amide X10 = K(gE-palm)”: the fragment found result in series [2] is reported as “DPP IV-cleavage product, 3% at 24 h”. For the compound `CCCCCCCCCCCCCCCC(=O)N[C@@H](CCC(=O)NCCCC[C@H](NC(=O)[C@H](CO)NC(=O)[C@H](CC(=O)O)NC(=O)[C@H](CC(C)C)NC(=O)[C@H](Cc1ccc(O)cc1)NC(=O)[C@H](CCCCN)NC(=O)[C@H](CO)NC(=O)[C@H](Cc1ccc(O)cc1)NC(=O)[C@H](CC(=O)O)NC(=O)[C@H](CO)NC(=O)[C@@H](NC(=O)[C@H](Cc1ccccc1)NC(=O)[C@@H](NC(=O)CNC(=O)[C@H](CCC(N)=O)NC(=O)CNC(=O)[C@@H](N)Cc1c[nH]cn1)[C@@H](C)O)[C@@H](C)O)C(=O)N[C@@H](CCCNC(=N)N)C(=O)N[C@@H](C)C(=O)N[C@@H](CCC(N)=O)C(=O)N[C@@H](CC(=O)O)C(=O)N[C@@H](Cc1ccccc1)C(=O)N[C@H](C(=O)N[C@@H](CCC(N)=O)C(=O)N[C@@H](Cc1c[nH]c2ccccc12)C(=O)N[C@@H](CC(C)C)C(=O)N[C@H](C(=O)N[C@@H](C)C(=O)NCC(=O)NCC(N)=O)C(C)C)C(C)C)C(=O)O` [Peptide G380], the “Human GlucR/GLP1R Ratio” value on Human GlucR [4] came to 0.013. The “Mouse GlucR/GLP1R Ratio” value at Mouse GlucR was 0.006.

As for `CCCCCCCCCCCCCCCC(=O)N[C@@H](CCC(=O)NCCCC[C@H](NC(=O)[C@H](CCCCN)NC(=O)[C@H](CO)NC(=O)[C@H](Cc1ccc(O)cc1)NC(=O)[C@H](CC(=O)O)NC(=O)[C@H](CO)NC(=O)[C@@H](NC(=O)[C@H](Cc1ccccc1)NC(=O)[C@@H](NC(=O)CNC(=O)[C@H](CCC(N)=O)NC(=O)C(C)(C)NC(=O)[C@@H](N)Cc1c[nH]cn1)[C@@H](C)O)[C@@H](C)O)C(=O)N[C@@H](CC(C)C)C(=O)N[C@@H](CC(=O)O)C(=O)N[C@@H](CO)C(=O)N[C@@H](CCC(=O)O)C(=O)N[C@@H](CCCNC(=N)N)C(=O)N[C@@H](C)C(=O)N[C@@H](CCCNC(=N)N)C(=O)N[C@@H](CC(=O)O)C(=O)N[C@@H](Cc1ccccc1)C(=O)N[C@H](C(=O)N[C@@H](C)C(=O)N[C@@H](Cc1c[nH]c2ccccc12)C(=O)N[C@@H](CC(C)C)C(=O)N[C@H](C(=O)N[C@@H](C)C(=O)NCC(=O)NCC(N)=O)C(C)C)C(C)C)C(=O)O` [g87 ?], the figures for the half-maximal effective concentration (EC50) at Human GlucR [3] and at Human GLP1R were 0.129 nM and 0.0298 nM, respectively. For `CCCCCCCCCCCCCCCC(=O)N[C@@H](CCC(=O)NCCCC[C@H](NC(=O)[C@H](CO)NC(=O)[C@H](CC(=O)O)NC(=O)[C@H](CC(C)C)NC(=O)[C@H](Cc1ccc(O)cc1)NC(=O)[C@H](CCCCN)NC(=O)[C@H](CO)NC(=O)[C@H](Cc1ccc(O)cc1)NC(=O)[C@H](CC(=O)O)NC(=O)[C@H](CO)NC(=O)[C@@H](NC(=O)[C@H](Cc1ccccc1)NC(=O)[C@@H](NC(=O)CNC(=O)[C@H](CCC(N)=O)NC(=O)CNC(=O)[C@@H](N)Cc1c[nH]cn1)[C@@H](C)O)[C@@H](C)O)C(=O)N[C@@H](CCCNC(=N)N)C(=O)N[C@@H](C)C(=O)N[C@@H](CCC(N)=O)C(=O)N[C@@H](CC(=O)O)C(=O)N[C@@H](Cc1ccccc1)C(=O)N[C@H](C(=O)N[C@@H](CCC(N)=O)C(=O)N[C@@H](Cc1c[nH]c2ccccc12)C(=O)N[C@@H](CC(C)C)C(=O)N[C@H](C(=O)N[C@@H](C)C(=O)NCC(=O)NCC(N)=O)C(C)C)C(C)C)C(=O)O` [g3 ? 0], in that order: 0.362 nM and 0.1 nM.

One may read the EC50 as the concentration needed to bring the measured effect to its halfway point.
